Test results from PMC10962542, “Inhibition of Aurora‐A/N‐Myc Protein–Protein Interaction Using Peptidomimetics: Understanding the Role of Peptide Cyclization” (Chembiochem, 2023).
*1 amine or outer side, *2 acyl side, *3 side chain or, on linkers, in order; H or OH if unused. Where a SMILES comes first, the peptide text is derived from it. Bridges are numbered along the chain shown (N, C = ends). Maleimide(3,4-diyl) = O=C1NC(=O)C([*:2])=C1[*:1]

Columns and labels:
[1] = target: T1, N‐Myc/Aurora‐A interaction (Aurora‐A122‐403‐C290A/C393A) (Homo sapiens, UniProt O14965, C290A/C393A); test: competition fluorescence anisotropy (FA) assay against fluorescein labelled N‐Myc61‐89; assay type: binding; conditions: SD; note: equilibrated 2 h at room temperature
T1 construct: Aurora‐A 122‐403‐C290A/C393A protein was produced as described previously; made in house
T1 sequence (O14965 122-403 C290A/C393A): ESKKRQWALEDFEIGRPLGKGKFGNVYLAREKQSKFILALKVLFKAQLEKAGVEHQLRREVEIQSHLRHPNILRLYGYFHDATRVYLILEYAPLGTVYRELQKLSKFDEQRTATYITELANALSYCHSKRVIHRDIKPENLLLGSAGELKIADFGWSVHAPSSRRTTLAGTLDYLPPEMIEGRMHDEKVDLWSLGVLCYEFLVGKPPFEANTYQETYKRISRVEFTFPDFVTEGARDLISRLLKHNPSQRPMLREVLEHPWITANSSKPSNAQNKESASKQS
Method: Fluorescence anisotropy (FA) assays: All assays were performed using 384‐well plates (Greiner Bio‐one, UK). […] All samples were prepared in 25 mM Tris, 150 mM NaCl, 5 mM MgCl2, pH 7.5, and tested in triplicate using an EnVisionTM 2103 MultiLabel plate reader (Perkin Elmer; Waltham, MA, USA). The parameters were set as follows: Excitation wavelength=480 nm (30 nm bandwidth) and emission wavelength=535 nm (30 nm bandwidth). Measured data were processed and analysed as previously described.[31] Specifically, the perpendicular intensity (P) and parallel intensity (S) were subtracted by the control values and used for calculations of intensity and anisotropy using the following Equations 1, 2, 3, 4, and 5: (1) I=2PG+S (2) r=S-PG (3) Lb=r-rmin/λrmax-r+r-rmin (4) [drawing 1] (5) y=rmax+rmin-rmax/1+(x/x0)^p
For competition FA assays, the average anisotropy and the average standard deviation of the values derived from equation (2) were calculated and fit to a sigmoidal logistic model (equation (5)) using Origin 2021. […] Results are reported as IC50±SD, with data points representing the mean of three replicates and error bars indicating the corresponding SD. Where applicable, ΔΔG was determined as follows: ΔΔG=−RT ln (ΔIC50).

[2] = circular dichroism (CD) spectroscopy; assay type: physicochemical; conditions: 150 mM NaCl, 5 mM MgCl2, pH 7.5, 5 °C, n=2, free‐thiol (red) samples with 5 mol equivalents TCEP
Method: Circular dichroism (CD): All samples were prepared in Tris buffer (25 mM Tris, 150 mM NaCl, 5 mM MgCl2, pH 7.5) with the exception of free sulfhydryl peptides, to which Tris(2‐carboxyethyl)phosphine (TCEP; 5 mol eq. relative to the peptide) was added. CD spectra were recorded using an APP Chirascan CD spectropolarimeter and 1 mm pathlength quartz cuvettes. Sample concentrations were typically 30–120 μM, as determined by UV−V absorption based on a tryptophan extinction coefficient of 5600 M^−1 cm^−1 and, for mal‐constrained variants, a maleimide coefficient of 1700 M^−1 cm^−1.[16, 32] […] Spectra were recorded in duplicate at 5 °C, over wavelengths ranging from 290 to 180 nm, with data collected every 1 nm (1 nm s^−1). A background spectrum for CD buffer alone was also recorded and background ellipticity values were subtracted from raw sample ellipticity values (θ) when calculating mean residue ellipticities (MREs) using Equation 6: (6) MRE=(θλ-θ0)xMw/nxlxc
Where [θ]λ is the observed ellipticity at a given wavelength λ in mdeg, [θ]0 is the ellipticity observed for the buffer, Mw =molar weight of the peptide in g mol^−1, n=number of residues; c=sample concentration (mg mL^−1); l=pathlength of the cuvette in mm. Estimates of peptide % helicity were made using Equation 7, [33] (7) %helicity=(MRE222-MREcoil)x100/-425001-3/n
where MRE222 is the MRE value at 222 nm, MREcoil=640‐45T (with T in °C)=415 deg cm^2 dmol^−1 res^−1 at 5 °C, and n is the number of backbone amide bonds including the N‐terminal acetyl.

For CSCC[C@H](NC(=O)[C@H](CCC(=O)O)NC(=O)[C@@H](NC(=O)[C@@H](NC(=O)[C@H](Cc1c[nH]c2ccccc12)NC(=O)[C@H](CO)NC(=O)[C@@H]1CCCN1C(=O)[C@@H]1CCCN1C(=O)[C@H](CCC(=O)O)NC(=O)[C@H](CO)NC(=O)[C@H](CO)NC(=O)[C@H](Cc1c[nH]cn1)NC(=O)[C@H](CCC(=O)O)NC(=O)[C@H](C)NC(=O)[C@H](Cc1ccccc1)NC(=O)CNC(=O)[C@H](CCCNC(=N)N)NC(=O)[C@H](CO)NC(=O)[C@@H]1CCCN1C(=O)[C@H](CO)NC(=O)[C@H](CC(C)C)NC(C)=O)C(C)C)[C@@H](C)O)C(=O)N[C@@H](CC(C)C)C(=O)N[C@H]1CSC2=C(SC[C@@H](C(=O)N[C@@H](Cc3c[nH]c4ccccc34)C(=O)NCC(N)=O)NC(=O)[C@H](CCC(=O)O)NC(=O)[C@H](CC(N)=O)NC(=O)[C@H](CCC(=O)O)NC1=O)C(=O)NC2=O [N-Myc 61-89L83C/L87C mal] (Ac-LSPSRGFAEHSSEPPSWVTEMLCENECWG-NH2; linker 23-27 via Maleimide(3,4-diyl)), the IC50 [1] was 129 ± 3 µM.
Work on CSCC[C@@H]1NC(=O)[C@H](CCC(=O)O)NC(=O)[C@@H](NC(=O)[C@@H](NC(=O)[C@H](Cc2c[nH]c3ccccc23)NC(=O)[C@H](CO)NC(=O)[C@@H]2CCCN2C(=O)[C@@H]2CCCN2C(=O)[C@H](CCC(=O)O)NC(=O)[C@H](CO)NC(=O)[C@H](CO)NC(=O)[C@H](Cc2c[nH]cn2)NC(=O)[C@H](CCC(=O)O)NC(=O)[C@H](C)NC(=O)[C@H](Cc2ccccc2)NC(=O)CNC(=O)[C@H](CCCNC(=N)N)NC(=O)[C@H](CO)NC(=O)[C@@H]2CCCN2C(=O)[C@H](CO)NC(=O)[C@H](CC(C)C)NC(C)=O)C(C)C)CSC2=C(SC[C@@H](C(=O)N[C@@H](CCC(=O)O)C(=O)N[C@@H](CC(N)=O)C(=O)N[C@@H](CCC(=O)O)C(=O)N[C@@H](CC(C)C)C(=O)N[C@@H](Cc3c[nH]c4ccccc34)C(=O)NCC(N)=O)NC(=O)[C@H](CC(C)C)NC1=O)C(=O)NC2=O [N-Myc 61-89 T79C/L83C mal] (Ac-LSPSRGFAEHSSEPPSWVCEMLCENELWG-NH2; linker 19-23 via Maleimide(3,4-diyl)) yielded an IC50 [1] of 99 ± 2 µM.
CSCC[C@@H]1NC(=O)[C@@H](NC(=O)[C@@H](NC(=O)[C@@H](NC(=O)[C@H](Cc2c[nH]c3ccccc23)NC(=O)[C@H](CO)NC(=O)[C@@H]2CCCN2C(=O)[C@@H]2CCCN2C(=O)[C@H](CCC(=O)O)NC(=O)[C@H](CO)NC(=O)[C@H](CO)NC(=O)[C@H](Cc2c[nH]cn2)NC(=O)[C@H](CCC(=O)O)NC(=O)[C@H](C)NC(=O)[C@H](Cc2ccccc2)NC(=O)CNC(=O)[C@H](CCCNC(=N)N)NC(=O)[C@H](CO)NC(=O)[C@@H]2CCCN2C(=O)[C@H](CO)NC(=O)[C@H](CC(C)C)NC(C)=O)C(C)C)[C@@H](C)O)CSC2=C(SC[C@@H](C(=O)N[C@@H](CC(N)=O)C(=O)N[C@@H](CCC(=O)O)C(=O)N[C@@H](CC(C)C)C(=O)N[C@@H](Cc3c[nH]c4ccccc34)C(=O)NCC(N)=O)NC(=O)[C@H](CC(C)C)NC(=O)[C@H](CC(C)C)NC1=O)C(=O)NC2=O [N-Myc 61-89 E80C/E84C mal] (Ac-LSPSRGFAEHSSEPPSWVTCMLLCNELWG-NH2; linker 20-24 via Maleimide(3,4-diyl)) showed an IC50 [1] of 86 ± 7 µM.
With CSCC[C@H](NC(=O)[C@H](CCC(=O)O)NC(=O)[C@@H](NC(=O)[C@@H](NC(=O)[C@H](Cc1c[nH]c2ccccc12)NC(=O)[C@H](CO)NC(=O)[C@@H]1CCCN1C(=O)[C@@H]1CCCN1C(=O)[C@H](CCC(=O)O)NC(=O)[C@H](CO)NC(=O)[C@H](CO)NC(=O)[C@H](Cc1c[nH]cn1)NC(=O)[C@H](CCC(=O)O)NC(=O)[C@H](C)NC(=O)[C@H](Cc1ccccc1)NC(=O)CNC(=O)[C@H](CCCNC(=N)N)NC(=O)[C@H](CO)NC(=O)[C@@H]1CCCN1C(=O)[C@H](CO)NC(=O)[C@H](CC(C)C)NC(C)=O)C(C)C)[C@@H](C)O)C(=O)N[C@H]1CSC2=C(SC[C@@H](C(=O)N[C@@H](CC(C)C)C(=O)N[C@@H](Cc3c[nH]c4ccccc34)C(=O)NCC(N)=O)NC(=O)[C@H](CC(N)=O)NC(=O)[C@H](CCC(=O)O)NC(=O)[C@H](CC(C)C)NC1=O)C(=O)NC2=O [N-Myc 61-89 L82C/E86C mal] (Ac-LSPSRGFAEHSSEPPSWVTEMCLENCLWG-NH2; linker 22-26 via Maleimide(3,4-diyl)) the IC50 [1] was 69 ± 18 µM.
CSCC[C@H](NC(=O)[C@@H]1CSC2=C(SC[C@H](NC(=O)[C@@H]3CCCN3C(=O)[C@@H]3CCCN3C(=O)[C@H](CCC(=O)O)NC(=O)[C@H](CO)NC(=O)[C@H](CO)NC(=O)[C@H](Cc3c[nH]cn3)NC(=O)[C@H](CCC(=O)O)NC(=O)[C@H](C)NC(=O)[C@H](Cc3ccccc3)NC(=O)CNC(=O)[C@H](CCCNC(=N)N)NC(=O)[C@H](CO)NC(=O)[C@@H]3CCCN3C(=O)[C@H](CO)NC(=O)[C@H](CC(C)C)NC(C)=O)C(=O)N[C@@H](Cc3c[nH]c4ccccc34)C(=O)N[C@@H](C(C)C)C(=O)N[C@@H]([C@@H](C)O)C(=O)N1)C(=O)NC2=O)C(=O)N[C@@H](CC(C)C)C(=O)N[C@@H](CC(C)C)C(=O)N[C@@H](CCC(=O)O)C(=O)N[C@@H](CC(N)=O)C(=O)N[C@@H](CCC(=O)O)C(=O)N[C@@H](CC(C)C)C(=O)N[C@@H](Cc1c[nH]c2ccccc12)C(=O)NCC(N)=O [N-Myc 61-89 S76C/E80 mal] (Ac-LSPSRGFAEHSSEPPCWVTCMLLENELWG-NH2; linker 16-20 via Maleimide(3,4-diyl)) showed an IC50 [1] of 147 ± 13 µM.
In the case of CSCC[C@H](NC(=O)[C@H](CCC(=O)O)NC(=O)[C@@H](NC(=O)[C@H](CS)NC(=O)[C@H](Cc1c[nH]c2ccccc12)NC(=O)[C@H](CO)NC(=O)[C@@H]1CCCN1C(=O)[C@@H]1CCCN1C(=O)[C@H](CCC(=O)O)NC(=O)[C@H](CO)NC(=O)[C@H](CO)NC(=O)[C@H](Cc1c[nH]cn1)NC(=O)[C@H](CCC(=O)O)NC(=O)[C@H](C)NC(=O)[C@H](Cc1ccccc1)NC(=O)CNC(=O)[C@H](CCCNC(=N)N)NC(=O)[C@H](CO)NC(=O)[C@@H]1CCCN1C(=O)[C@H](CO)NC(=O)[C@H](CC(C)C)NC(C)=O)[C@@H](C)O)C(=O)N[C@@H](CS)C(=O)N[C@@H](CC(C)C)C(=O)N[C@@H](CCC(=O)O)C(=O)N[C@@H](CC(N)=O)C(=O)N[C@@H](CCC(=O)O)C(=O)N[C@@H](CC(C)C)C(=O)N[C@@H](Cc1c[nH]c2ccccc12)C(=O)NCC(N)=O [N-Myc 61-89 V78C/L82C red] (Ac-LSPSRGFAEHSSEPPSWCTEMCLENELWG-NH2), the “MRE222 (mean residue ellipticity at 222 nm)” value ([2]; 25 mM Tris, mean ± SD, SD) is reported as -1692 ± 70 deg cm^−1 dmol^−1 res^−1 and the “% Helicity (estimated)” value ([2]; from MRE222 by equation 7, 25 mM Tris) is reported as 6 ± 1%.
CC(=O)N[C@@H](CC(C)C)C(=O)N[C@@H](CO)C(=O)N1CCC[C@H]1C(=O)N[C@@H](CO)C(=O)N[C@@H](CCCNC(=N)N)C(=O)NCC(=O)N[C@@H](Cc1ccccc1)C(=O)N[C@@H](C)C(=O)N[C@@H](CCC(=O)O)C(=O)N[C@@H](Cc1c[nH]cn1)C(=O)N[C@@H](CO)C(=O)N[C@@H](CO)C(=O)N[C@@H](CCC(=O)O)C(=O)N1CCC[C@H]1C(=O)N1CCC[C@H]1C(=O)N[C@@H](CO)C(=O)N[C@@H](Cc1c[nH]c2ccccc12)C(=O)N[C@H](C(=O)N[C@H](C(=O)N[C@@H](CCC(=O)O)C(=O)N[C@H]1CSC2=C(SC[C@@H](C(=O)N[C@@H](CCC(=O)O)C(=O)N[C@@H](CC(C)C)C(=O)N[C@@H](Cc3c[nH]c4ccccc34)C(=O)NCC(N)=O)NC(=O)[C@H](CCC(=O)O)NC(=O)[C@H](CC(C)C)NC(=O)[C@H](CC(C)C)NC1=O)C(=O)NC2=O)[C@@H](C)O)C(C)C [N-Myc 61-89 M81C/N85C mal] (Ac-LSPSRGFAEHSSEPPSWVTECLLECELWG-NH2; linker 21-25 via Maleimide(3,4-diyl)) gave an IC50 [1] of 133 ± 3 µM.
